Data on 14 molecules can be found in patent US9616037B2, “Aryl-phenyl-sulfonamido-cycloalkyl compounds and their use” (PIMCO 2664 Limited, priority 2008, dated 2017).

For one data set, the system named is J774 macrophages. The experiment in a line: Alamar Blue macrophage J774 viability assay. To be noted: Mus musculus; J774 cells, 72 hours with compound, Alamar Blue readout; read-out: IC50. The data set is classed as cell-based. Here is the method:
(§1) Initial screening of candidate compounds was performed using in vitro assays to determine potency, metabolic stability and solubility in biologically relevant fluids. Potency was assessed using a viability assay based on the survival of the J774 macrophage cell line. Macrophages are closely related to osteoclasts and have been used previously as a model system for osteoclast survival (see, e.g., Luckman et al., 1998). Like osteoclasts, J774 macrophages are dependent on continued NFκB activation for survival, thereby providing a valuable screen for compounds with anti-inflammatory activity. Metabolic stability was measured by determining the rate of disappearance of compound in the presence of human liver microsomal preparations, as quantified by LC-MS/MS. Solubility was measured by equilibration of the compound in fasted state simulated intestinal fluid (FaSSIF) and quantified by HPLC.
In vitro potency as anti-inflammatory agents was determined for a number of APSAC compounds by incubation with J774 macrophages and subsequent determination of cell viability.
J774 cells were plated at 10^4 cells per well in 100 μL αMEM (α Modified Eagle Medium) in 96-well plates and grown overnight. The next day, test compounds were added to the cultures, and cultures were continued for another 72 hours. At the end of the culture period, cell survival was determined using an Alamar Blue assay as previously described (see, e.g., Nociari et al., 1998).
Alamar Blue is an oxidation-reduction sensitive indicator. The dye itself is in the oxidised state, which is blue and non-fluorescent. The dye can accept electrons from reducing species, such as NADPH and FADH, to form a reduced dye species, which is red and fluorescent. Thus the transformation from oxidised form to reduced form can be measured by fluorimetric or colourimetric means. For fluorescence measurements, 530-560 nm excitation and 590 nm emission wavelengths are typically used. For colourimetric measurements, absorbance at 570 nm (reduced form) and 600 nm (oxidised form) is typically measured. A simple calculation is performed to determine the relative quantities of the two species.
A high ratio of the reducing species, NADPH and FADH, to the corresponding oxidised species, NADP and FAD, is an indicator that cells are proliferating and viable. A low ratio indicates cells that are quiescent or non-viable.
Briefly, Alamar Blue (Biosource International) was added undiluted to the each well (1:10 v/v, 10 μL). The plate was incubated at 37° C. for 3-4 hours and the fluorescence was measured at 590 nm, with a 25 nm bandwidth. A high reading indicated cells with normal viability, and a low reading indicated cells that have been damaged and are no longer proliferating normally. The controls gave a high fluorescence reading, indicating a high number of live, healthy cells. A potent test compound gave a low fluorescence reading. The average results for each test compound (n=5) were expressed as a percent (%) of the average control value.
Addition of Compounds. All of the compounds studied were made up as 100 mM solutions in DMSO. These stock solutions were then diluted 1000-10000× in culture medium (αMEM). From these 100 μM or 10 μM solutions, convenient quantities (3-33 μL) were added directly to the wells so as to give the desired final compound concentration.

The nature of data set [1]: Thermodynamic aqueous solubility in fasted state simulated intestinal fluid (FaSSIF). The data set is classed as physicochemical. Conditions: pH 6.5, thermodynamic from solid, equilibrated at 25° C. for 24 hours, HPLC. Here is the method:
as §1, with “Macrophages are closely related to osteoclasts and have been used previously as a model system for osteoclast survival (see, e.g., Luckman et al., 1998).” left out
Thermodynamic aqueous solubility was measured by equilibration of a number of APSAC compounds, in the solid state, with fasted state simulated intestinal fluid (FaSSIF) and quantified by HPLC. Measurement of solubility in FaSSIF provides a valuable model for the prediction of drug dissolution following oral administration.
The pH was adjusted to 6.5 using 1 M NaOH solution.
0.6 mL of a solution containing 100 mg/mL lecithin in methylene chloride was added. The methylene chloride was eliminated under vacuum at about 40° C. The vacuum was drawn for 15 minutes at 250 mbar, followed by 15 minutes at 100 mbar. […] After cooling to room temperature, the solution was then adjusted to 100 mL with blank FaSSIF.
The suspension was equilibrated at 25° C. for 24 hours, and then the pH was measured. The suspension was then filtered through a glass fibre C filter into a 96-well plate. The filtrate was then diluted by a factor of 100. Quantification was made by HPLC with reference to a standard solution of compound at approximately 0.1 mg/mL in DMSO. Different volumes of the standard, diluted and undiluted sample solutions were injected. […] Analysis was performed on an Agilent HP1100 series system equipped with a diode array detector and using ChemStation software vB.02.01-SR1.

Data set [2] is described as follows: Human liver microsomal stability assay. Type of data set: in vitro ADME. Conditions: pooled human liver microsomes 0.5 mg/mL, 3 μM compound, NADPH, 45 minute incubation; for half-life at 3 µM: both sexes, pH 7.4. Here is the method:
as §1, with “Macrophages are closely related to osteoclasts and have been used previously as a model system for osteoclast survival (see, e.g., Luckman et al., 1998).” left out
Metabolic stability of APSAC derivatives was measured by determination of the rate of compound disappearance when incubated in the presence of human liver microsomes. Liver microsomes are prepared from the endoplasmic reticulum of hepatocytes and are the primary source of the most important enzymes (cytochrome P450) involved in drug metabolism. Study of drug stability in the presence of liver microsomes is accepted as a valuable model permitting rapid prediction of in vivo drug stability.
Human liver microsomes were obtained from a commercial source. Test compounds (3 μM) were incubated with pooled liver microsomes (male and female). Samples were incubated for a 45 minute period and removed at 5 time points and test compounds were analysed by LC-MS/MS.
The final incubation volume was 25 μL. A control incubation was included for each compound tested, where 0.1 M phosphate buffer pH 7.4 was added instead of NADPH. The control compounds testosterone and 7-hydroxycoumarin were included in each experiment and all incubations were performed singularly for each compound.
Each compound was incubated for 0, 5, 15, 30, and 45 minutes. The control (minus NADPH) was incubated for 45 minutes only. […] The incubation plates were centrifuged at 2500 rpm for 20 minutes at 4° C. to precipitate the protein.
Following protein precipitation, the sample supernatants were combined in cassettes of up to 4 compounds and analysed using standard LC-MS/MS conditions.
From a plot of the natural logarithm of the peak area ratio (i.e., the ratio of compound peak area:internal standard peak area) against time, the gradient of the line was determined. Subsequently, half-life and intrinsic clearance were calculated using the equations below: Eliminated rate constant (k)=(−gradient). […] Pharmacokinetics Studies

Values after ≈ are worked out from the molar mass of the structure shown.

On to `CC(C)(O)[C@H]1CC[C@H](NS(=O)(=O)c2ccc(-c3ccc(F)cc3F)cc2)CC1` [ABD794, 2′,4′-Difluoro-N-(trans-4-(2-hydroxypropan-2-yl)cyclohexyl)biphenyl-4-sulfonamide], for which the IC50 with J774 macrophages was 2100 nM. This molecule also displayed a solubility at 24 h in data set [1] of 12 µg/mL (≈ 29.3 µM). For the same molecule, the T1/2 result in data set [2] is “Stable”.

With `O=S(=O)(N[C@H]1CC[C@H](O)CC1)c1ccc(-c2ccc(Cl)cc2F)cc1` [ABD655, 4′-Chloro,2′-fluoro-N-(trans-4-hydroxycyclohexyl)biphenyl-4-sulfonamide], the half-inhibitory concentration (IC50) in the data set with J774 macrophages is 180 nM. In addition, the concentration in solution in data set [1] (solubility at 24 h) came to 30 µg/mL (≈ 78.2 µM). In data set [2], this molecule returned a half-life at 3 µM of 228 min.

As to `N[C@H]1CC[C@@H](NS(=O)(=O)c2ccc(-c3ccc(F)cc3F)cc2)CC1` [ABD812, N-(cis-4-Aminocyclohexyl)-2′,4′-difluorobiphenyl-4-sulfonamide], in the data set with J774 macrophages, the half-inhibitory concentration (IC50) was 7600 nM. The same molecule registered a solubility at 24 h in data set [1] of 980 µg/mL (≈ 2670 µM). In addition, the half-life at 3 µM in data set [2] was found to be 585 min.

On to `O=S(=O)(NC1CCC(CO)CC1)c1ccc(-c2ccc(F)cc2F)cc1` (stereo not drawn) [ABD776, 2′,4′-Difluoro-N-(4-(trans-hydroxymethyl)cyclohexyl)biphenyl-4-sulfonamide], for which, in the data set on J774 macrophages, the concentration for half-maximal inhibition (IC50) is 800 nM. The molecule further had a solubility at 24 h in data set [1] of 82 µg/mL (≈ 215 µM). In addition, in data set [2], the half-life at 3 µM is 137 min.

On to `O=S(=O)(N[C@H]1CC[C@@H](O)CC1)c1ccc(-c2ccc(F)cc2F)cc1` [ABD777, 2′,4′-Difluoro-N-(cis-4-hydroxycyclohexyl)biphenyl-4-sulfonamide], for which, in the data set with J774 macrophages, the IC50 was 1900 nM. For the same molecule, the concentration in solution in data set [1] (solubility at 24 h) was 60 µg/mL (≈ 163 µM). Further, the half-life at 3 µM in data set [2] came out at 69 min.

On to `O=C1CCC(NS(=O)(=O)c2ccc(-c3ccc(F)cc3F)cc2)CC1` [ABD786, 2′,4′-Difluoro-N-(4-oxocyclohexyl)biphenyl-4-sulfonamide], for which the concentration for half-maximal inhibition (IC50) with J774 macrophages was 280 nM. Also, in data set [1], the concentration in solution (solubility at 24 h) was 32 µg/mL (≈ 87.6 µM). This molecule showed a half-life at 3 µM in data set [2] of 12 min.

As to `CC(C)(O)[C@H]1CC[C@H](NS(=O)(=O)c2ccc(-c3ccc(F)cc3F)cc2)C1` [ABD815, 2′,4′-Difluoro-N-((1S,3S)-3-(2-hydroxypropan-2yl)cyclopentyl) biphenyl-4-sulfonamide], in the data set with J774 macrophages, the 50% inhibitory concentration (IC50) is less than 300 nM. In data set [1], this molecule yielded a solubility at 24 h of 250 µg/mL (≈ 632 µM). The molecule also returned a half-life at 3 µM in data set [2] of 13.2 min.

As for `NC1CCC(NS(=O)(=O)c2ccc(-c3ccc(F)cc3F)cc2)CC1` (stereo not drawn) [ABD787], in the data set with J774 macrophages, the 50% inhibitory concentration (IC50) was determined as 3550 nM. In data set [1], this molecule came in with a solubility at 24 h of 140 µg/mL (≈ 382 µM). The T1/2 entry in data set [2] is given as “Stable”.

For `CN(C)[C@H]1CC[C@@H](NS(=O)(=O)c2ccc(-c3ccc(F)cc3F)cc2)CC1` [ABD798, N-(cis-4-(Dimethylamino)cyclohexyl)-2′,4′-difluorobiphenyl-4-sulfonamide], the IC50 in the data set with J774 macrophages stood at 600 nM. The molecule also returned a solubility at 24 h in data set [1] of 4700 µg/mL (≈ 11900 µM). For the same molecule, the T1/2 result in data set [2] is given as “Stable”.

As to `O=S(=O)(N[C@H]1CC[C@H](CO)C1)c1ccc(-c2ccc(F)cc2F)cc1` [ABD813, 2′,4′-Difluoro-N-((1S,3S)-3-(hydroxymethyl)cyclopentyl)biphenyl-4-sulfonamide], the IC50 in the data set with J774 macrophages came out at 570 nM. The molecule further registered a solubility at 24 h in data set [1] of 330 µg/mL (≈ 898 µM). In data set [2], this molecule had a half-life at 3 µM of 45.4 min.

With `O=S(=O)(N[C@@H]1CCC[C@@H]1CO)c1ccc(-c2ccc(F)cc2F)cc1` (relative stereo) [ABD769, 2′,4′-Difluoro-N-(cis-2-(hydroxymethyl)cyclopentyl)biphenyl-4-sulfonamide], the IC50 in the data set on J774 macrophages came to 4590 nM. The solubility at 24 h in data set [1] was 70 µg/mL (≈ 191 µM). In data set [2], the half-life at 3 µM came out at 42 min.

With `CC(C)(O)[C@H]1CC[C@@H](NS(=O)(=O)c2ccc(-c3ccc(F)cc3F)cc2)CC1` [ABD795, 2′,4′-Difluoro-N-(cis-4-(2-hydroxypropan-2-yl)cyclohexyl)biphenyl-4-sulfonamide], in the data set with J774 macrophages, the IC50 amounted to 2700 nM. The same molecule came in with a solubility at 24 h in data set [1] of 50 µg/mL (≈ 122 µM). Besides, the half-life at 3 µM in data set [2] is 15 min.

Turning to `CN(C)[C@H]1CC[C@H](NS(=O)(=O)c2ccc(-c3ccc(F)cc3F)cc2)CC1` [ABD799, N-(trans-4-(Dimethylamino)cyclohexyl)-2′,4′-difluorobiphenyl-4-sulfonamide], in the data set on J774 macrophages, the IC50 was determined as 400 nM. In data set [1], this molecule registered a solubility at 24 h of 7200 µg/mL (≈ 18300 µM). Moreover, in data set [2], the T1/2 result is reported as “Stable”.

`CC(C)(O)[C@@H]1CC[C@H](NS(=O)(=O)c2ccc(-c3ccc(F)cc3F)cc2)C1` [ABD796, 2′,4′-Difluoro-N-((1S,3R)-3-(2-hydroxypropan-2-yl)cyclopentyl)biphenyl-4-sulfonamide]: the half-maximal inhibitory concentration (IC50) in the data set with J774 macrophages is less than 300 nM. In data set [1], this molecule displayed a solubility at 24 h of 200 µg/mL (≈ 506 µM). The same molecule gave a half-life at 3 µM in data set [2] of 54 min.
